Target: T1, Human TLR7 (Homo sapiens, UniProt Q9NYK1)
T1 construct: stably and individually express human TLR4, TLR7 or TLR9 full-length ORF cDNAs; host or cells: HEK-293 (ATCC) with ELAM-1 NF-kappaB luciferase reporter
T1 sequence (Q9NYK1 27-1049): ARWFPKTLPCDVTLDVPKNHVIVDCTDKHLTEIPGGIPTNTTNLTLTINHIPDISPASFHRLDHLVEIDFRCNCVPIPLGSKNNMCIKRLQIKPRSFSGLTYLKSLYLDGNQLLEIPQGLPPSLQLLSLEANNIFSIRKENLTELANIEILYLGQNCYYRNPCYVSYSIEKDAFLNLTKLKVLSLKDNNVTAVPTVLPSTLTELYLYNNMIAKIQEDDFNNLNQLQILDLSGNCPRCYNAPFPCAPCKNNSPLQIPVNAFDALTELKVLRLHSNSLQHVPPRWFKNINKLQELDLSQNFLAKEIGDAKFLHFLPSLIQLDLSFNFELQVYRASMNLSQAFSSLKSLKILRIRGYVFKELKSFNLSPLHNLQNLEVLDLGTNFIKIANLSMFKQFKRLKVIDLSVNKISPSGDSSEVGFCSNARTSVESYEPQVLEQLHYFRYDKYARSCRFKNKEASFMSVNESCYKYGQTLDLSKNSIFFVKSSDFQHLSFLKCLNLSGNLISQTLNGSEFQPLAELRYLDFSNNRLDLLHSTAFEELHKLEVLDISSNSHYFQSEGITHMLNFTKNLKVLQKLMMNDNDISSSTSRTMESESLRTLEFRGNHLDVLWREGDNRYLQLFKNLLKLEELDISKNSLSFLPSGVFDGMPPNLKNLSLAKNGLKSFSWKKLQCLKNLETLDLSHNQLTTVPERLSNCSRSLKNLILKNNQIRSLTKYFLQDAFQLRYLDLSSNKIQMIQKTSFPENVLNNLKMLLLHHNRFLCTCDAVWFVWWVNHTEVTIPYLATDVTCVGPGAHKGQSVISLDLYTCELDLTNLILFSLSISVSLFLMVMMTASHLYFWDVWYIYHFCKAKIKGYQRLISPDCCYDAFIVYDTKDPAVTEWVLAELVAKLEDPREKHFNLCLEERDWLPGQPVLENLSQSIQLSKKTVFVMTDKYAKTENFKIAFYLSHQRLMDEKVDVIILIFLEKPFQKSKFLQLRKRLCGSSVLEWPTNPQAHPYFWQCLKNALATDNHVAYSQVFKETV
Assay: HEK-293 NFkB-luciferase reporter assay, CL097 stimulation
Format: cell-based
Conditions: ligand CL097
Source text: HEK-293 cells (ATCC) were engineered to stably express a NF-kappaB transcription factor inducible E-selectin (ELAM-1) luciferase reporter derived from the plasmid pGL3 (Promega) containing base pairs −2241 bp to −254 bp from the promoter of the human E-selectin gene (Accession No. NM_000450). These cells were then subsequently engineered to stably and individually express human TLR4, TLR7 or TLR9 full-length ORF cDNAs. Human TLR4 cDNA (Accession No. NM_138554) was cloned into pcDNA 3.0 expression vector (Invitrogen). TLR4 transfected cells were also engineered to express human MD-2 co-receptor [MD-2 cDNA (Accession No. NM_015364) was cloned into the pEF-BOS vector] and were supplemented with 10 nM soluble CD14 (R&D Systems) in the media to optimize LPS responsiveness. Human TLR9 cDNA (Accession No. NM_017442) was cloned into the pBluescript II KS vector (Agilent). Human TLR7 cDNA (Accession No. NM_016562) was obtained from OriGene. HEK-293 cells stably expressing human TLR8 (Accession No. NM_138636) or mouse TLR7 (Accession No. NM_133211) were purchased from InvivoGen and were then stably transfected with pNiFty2(NF-kappaB)-luciferase reporter plasmid (InvivoGen). Each cell type was plated in Dulbecco's modified Eagle's medium (DMEM) containing 10% fetal bovine serum (FBS) at a density of 2.22×10^5 cells/ml into a 384-well plate and incubated for 2 days at 37° C., 5% CO2. […]

Compound: C[C@H]1C[C@@H](N)CN(c2ccc(C#N)c3ncccc23)C1 [ER-888840, 5-((3R,5S)-3-amino-5-methylpiperidin-1-yl)quinoline-8-carbonitrile]
- IC50: 0.2 nM

From patent US9663486B2, “Selectively substituted quinoline compounds” (EISAI R&D MANAGEMENT CO., LTD., priority 2013, dated 2017)
